Assay results reported in ChEMBL document CHEMBL1201862, “PubChem BioAssay data set” (2004).
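Assay format: 96-well plates, 48-hour exposure. GI50 marks 50% less growth.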 Calls of active or inactive are those of the source. Rule as the data show it: active = GI50 up to about 1.1 µM and inactive = higher.

Legend:
Assay in all cases: NCI-60 cell line screen, 48 h
SF-539 = tested on: SF-539
KM12 = tested on: KM12
HT-29 = tested on: HT-29
MCF7 = tested on: MCF7
Hs-578T = tested on: Hs-578T
MDA-N = tested on: MDA-N
OVCAR-3 = tested on: OVCAR-3
CAKI-1 = tested on: CAKI-1
SK-MEL-5 = tested on: SK-MEL-5
TK-10 = tested on: TK-10
U-251 = tested on: U-251
NCI-H522 = tested on: NCI-H522
SF-268 = tested on: SF-268
PC-3 = tested on: PC-3
COLO 205 = tested on: COLO 205
SN12C = tested on: SN12C
Malme-3M = tested on: Malme-3M
BT-549 = tested on: BT-549
EKVX = tested on: EKVX
SK-MEL-2 = tested on: SK-MEL-2
SNB-75 = tested on: SNB-75
MDA-MB-435 = tested on: MDA-MB-435
OVCAR-8 = tested on: OVCAR-8
MOLT-4 = tested on: MOLT-4
OVCAR-4 = tested on: OVCAR-4
NCI/ADR-RES = tested on: NCI/ADR-RES
LOX IMVI = tested on: LOX IMVI
HCT-116 = tested on: HCT-116
MDA-MB-231 = tested on: MDA-MB-231
SK-MEL-28 = tested on: SK-MEL-28
SNB-19 = tested on: SNB-19
UO-31 = tested on: UO-31
RXF 393 = tested on: RXF 393
T47D = tested on: T47D
UACC-62 = tested on: UACC-62
NCI-H226 = tested on: NCI-H226
K562 = tested on: K562
SK-OV-3 = tested on: SK-OV-3
OVCAR-5 = tested on: OVCAR-5
A549 = tested on: A549
A498 = tested on: A498
M14 = tested on: M14
HOP-92 = tested on: HOP-92
HCT-15 = tested on: HCT-15
NCI-H460 = tested on: NCI-H460
786-0 = tested on: 786-0
UACC-257 = tested on: UACC-257
IGROV-1 = tested on: IGROV-1
HCC 2998 = tested on: HCC 2998
HL-60 = tested on: HL-60
ACHN = tested on: ACHN
SW-620 = tested on: SW-620
CCRF-CEM = tested on: CCRF-CEM
DU-145 = tested on: DU-145
SF-295 = tested on: SF-295
NCI-H23 = tested on: NCI-H23

N[C@@H]1c2c(Br)sc(Br)c2[C@H](O)[C@@H]1O
GI50 (SF-539): > 100 µM (inactive)
GI50 (KM12): > 100 µM (inactive)
GI50 (HT-29): > 100 µM (inactive)
GI50 (MCF7): > 100 µM (inactive)
GI50 (Hs-578T): > 100 µM (inactive)
GI50 (MDA-N): > 100 µM (inactive)
GI50 (OVCAR-3): > 100 µM (inactive)
GI50 (CAKI-1): > 100 µM (inactive)
GI50 (SK-MEL-5): > 100 µM (inactive)
GI50 (TK-10): > 100 µM (inactive)
GI50 (U-251): > 100 µM (inactive)
GI50 (NCI-H522): > 100 µM (inactive)
GI50 (SF-268): > 100 µM (inactive)
GI50 (PC-3): > 100 µM (inactive)
GI50 (COLO 205): > 100 µM (inactive)
GI50 (SN12C): > 100 µM (inactive)
GI50 (Malme-3M): > 100 µM (inactive)
GI50 (BT-549): > 100 µM (inactive)
GI50 (EKVX): > 100 µM (inactive)
GI50 (SK-MEL-2): > 100 µM (inactive)
GI50 (SNB-75): > 100 µM (inactive)
GI50 (MDA-MB-435): > 100 µM (inactive)
GI50 (OVCAR-8): > 100 µM (inactive)
GI50 (MOLT-4): > 100 µM (inactive)
GI50 (OVCAR-4): > 100 µM (inactive)
GI50 (NCI/ADR-RES): > 100 µM (inactive)
GI50 (LOX IMVI): > 100 µM (inactive)
GI50 (HCT-116): > 100 µM (inactive)
GI50 (MDA-MB-231): > 100 µM (inactive)
GI50 (SK-MEL-28): > 100 µM (inactive)
GI50 (SNB-19): > 100 µM (inactive)
GI50 (UO-31): > 100 µM (inactive)
GI50 (RXF 393): > 100 µM (inactive)
GI50 (T47D): > 100 µM (inactive)
GI50 (UACC-62): > 100 µM (inactive)
GI50 (NCI-H226): > 100 µM (inactive)
GI50 (K562): > 100 µM (inactive)
GI50 (SK-OV-3): > 100 µM (inactive)
GI50 (OVCAR-5): > 100 µM (inactive)
GI50 (A549): > 100 µM (inactive)
GI50 (A498): > 100 µM (inactive)
GI50 (M14): > 100 µM (inactive)
GI50 (HOP-92): > 100 µM (inactive)
GI50 (HCT-15): > 100 µM
GI50 (NCI-H460): > 100 µM (inactive)
GI50 (786-0): > 100 µM (inactive)
GI50 (UACC-257): > 100 µM (inactive)
GI50 (IGROV-1): > 100 µM (inactive)
GI50 (HCC 2998): > 100 µM (inactive)
GI50 (HL-60): > 100 µM (inactive)
GI50 (ACHN): > 100 µM (inactive)
GI50 (SW-620): > 100 µM (inactive)
GI50 (CCRF-CEM): > 100 µM (inactive)
GI50 (DU-145): > 100 µM (inactive)
GI50 (SF-295): > 100 µM (inactive)
GI50 (NCI-H23): > 100 µM (inactive)
